Measured values from patent US20130030049A1, “METHODS OF TREATING DERMATOLOGICAL DISORDERS OR CONDITIONS” (Dermira (Canada), Inc., priority 2006, published 2013).
Like-named read-outs stand apart in the source and are kept apart here. Values belong to the molecule of their own block, whether it stands above or below them.

Columns and labels:
SZ95 sebocytes [1] = experiment: Inhibition of lipid synthesis in AA-stimulated SZ95 sebocytes (Nile Red staining); assay type: cell-based, human
Experimental: (§1) The immortalized human sebocyte cell line, SZ95, was maintained in culture as described in Zouboulis, C. C. et al., J. Invest. Dermatol. (1999), Vol. 113, pp. 1011-1020. Lipid synthesis was stimulated by treating SZ95 cells with arachidonic acid (AA). For measurement of lipid production and lipid inhibition studies, test compounds were dissolved in dimethylsulfoxide (DMSO) and added at the desired concentration in 96-well microtiter plates. The cells were then cultured for up to 72 hours before the plates were washed 3 times with PBS and a final volume of 200 μL PBS/well was added. To stain cell neutral lipids, 5 μL of Nile Red solution (0.2 mg/mL dissolved in DMSO) was added to each well and incubated for a minimum of 60 minutes. Plate fluorescence was then quantified using a fluorometric plate reader (excitation wavelength: 490 nm; emission wavelength: 590 nm). Inhibition of lipid levels by the test compound was expressed as the % reduction of the fluorescence of AA-stimulated cells in the presence of the test compound relative to the values obtained for the unstimulated control cells. Cell viability was measured by utilizing the conversion of a tetrazolium reagent (MTS) to a colored-formazan product by live cells. For these assays, the test compound was dissolved in dimethylsulfoxide (DMSO) and added at the desired concentration to cells seeded into 96-well plates. The cells were cultured for 48 hours in the presence of the test compound before the plates were washed 3 times with PBS. A final volume of 100 μL of culture medium per well was added. Twenty μL of MTS solution (0.2 mg/mL in sterile PBS) was added to each well and incubated for a minimum of 60 minutes until the desired optical density was reached. The color development of the wells was measured using a plate reader at an absorbance of […]. Effect on cell viability by the test compound was expressed as the % reduction of the absorbance for AA-stimulated cells in the presence of the test compound relative to the values obtained for the untreated control cells.

3T3-L1 cells = experiment: 3T3-L1 adipocyte differentiation and lipid accumulation (Oil Red O); assay type: cell-based; settings: mouse 3T3-L1 adipocytes, FIGS. 8-10
Experimental: Mouse 3T3-L1 preadipocytes (American Type Culture Collection) were passaged and maintained in Dulbecco's modified Eagles Medium (DMEM) supplemented with 10% fetal calf serum (FCS), 1 mM sodium pyruvate, penicillin (100 U/ml)/streptomycin (100 μg/ml) and 4 mM Glutamax (Gibco/Life Technologies). To initiate adipocyte differentiation, 3T3-L1 cells were plated at confluency into culture plates or dishes and grown in supplemented DMEM for two days post-confluency. Initiation medium consisted of DMEM with 0.5 mM 3-isobutyl-1-methylxanthine, 1 μM dexamethasone and human insulin at 10 μg/ml. Progression medium contained insulin (10 μg/ml) which replaced the initiation medium after 48-72 hours. Cellular lipid was imaged by Oil Red O staining as described in Example 2 for LNCaP cells.

IL-1β = experiment: Supernatant IL-1β level of activated PBMC (flow cytometry-based); assay type: cell-based; settings: Homo sapiens; PBMC stimulated with IFN-γ plus LPS, 10% FBS, 48 hours; read-out: IL-1β supernatant level IC50 (estimated)
Experimental: (§2) As described herein, the inhibitory effect of TOFA on fatty acid synthesis is well known. However, the potential influence of TOFA on cellular production of inflammatory mediators or immune cell proliferation is unreported. To address this question, PBMC were isolated from different donors by density gradient centrifugation. Different amounts of TOFA were added to PBMC cultures in the presence of two different stimuli sets. One activating stimulus was phytohemagglutinin (PHA), a plant-derived mitogen that stimulates proliferation and cytokine synthesis by T lymphocytes. These cell preparations were also activated using a combination of interferon-γ (IFN-γ) and lipopolysaccharide (LPS) to stimulate cytokine production by the monocyte fraction within PBMC preparations. Following a 48 hour culture period, cell supernatants were obtained for simultaneous determination of cytokine levels using a flow cytometry-based quantification method. […] Cell viability was assessed using a colorimetric assay based on the conversion of 3-(4,5-dimethylthiazol-2-yl)-5-(3-carboxymethoxyphenyl)-2-(4-sulfophenyl)-2H-tetrazolium, inner salt (MTS) into a soluble formazan product by mitochondrial dehydrogenase of viable cells. Cell proliferation was determined by adding ^3H-thymidine to the cultures and determining its level of incorporation into DNA using scintillation counting.

SZ95 sebocytes [2] = experiment: SZ95 sebocyte viability (MTS assay); assay type: cell-based, human; settings: AA-stimulated SZ95 cells, FIG. 2B
Experimental: as §1, with “To stain cell neutral lipids, 5 μL of Nile Red solution (0.2 mg/mL dissolved in DMSO) was added to each well and incubated for a minimum of 60 minutes.” left out, “For these assays, the test compound was dissolved in dimethylsulfoxide (DMSO) and added at the desired concentration to cells seeded into 96-well plates. The cells were cultured for 48 hours in the presence of the test compound before the plates were washed 3 times with PBS. A final volume of 100 μL of culture medium per well was added. Twenty μL of MTS solution (0.2 mg/mL in sterile PBS) was added to each well and incubated for a minimum of 60 minutes until the desired optical density was reached.” left out

LNCaP cells = experiment: Lipid accumulation in DHT-stimulated LNCaP cells (Nile Red flow cytometry, Oil Red O); assay type: cell-based, human
Experimental: The human prostate LNCaP adenocarcinoma cell line was obtained from American Type Culture Collection. Cells were maintained in RPMI 1640 medium containing 10% fetal calf serum (FCS), 4 mM Glutamax, 1 mM sodium pyruvate, 1 mM HEPES, penicillin (100 U/mL) and streptomycin (100 μg/mL). For experiments, approximately 10,000 cells/well were plated in 6-well tissue culture plates in RPMI 1640 10% FBS for 72 hours. To minimize potential serum androgen effects, medium containing 5% charcoal/dextran-stripped FCS was added for 72 hours. Lipid synthesis was then stimulated by addition of the androgen dihydrotestosterone (DHT) at 50 nM. TOFA was solubilized in DMSO and added at various concentrations in RPMI 1640 containing 5% charcoal/dextran-treated. Cells were incubated in the presence of these factors for 96 hours at 37° C. Lipid accumulation was subsequently quantified by Nile Red staining and flow cytometric analysis. The flow cytometer laser excitation was set at 488 nm and Nile Red fluorescence collected through a 585 nm band pass filter. A total of 10,000 events were collected per sample. […] Cell Nile Red fluorescence was also visualized through a fluorescence microscope.
Cellular lipid expression was also determined using Oil Red O staining. […] Lipid accumulation was visualized by fluorescence microscopy.

PBMC = experiment: Viability of activated PBMC (MTS assay); assay type: cell-based, human
Experimental: as §2

TNF-α = experiment: Supernatant TNF-α level of activated PBMC (flow cytometry-based); assay type: cell-based; settings: Homo sapiens, 48 h, PBMC stimulated with IFN-γ plus LPS, 10% FBS, read-out: TNF-α supernatant level IC50 (estimated)
Experimental: as §2

IL-6 = experiment: Supernatant IL-6 level of activated PBMC (flow cytometry-based); assay type: cell-based; settings: Homo sapiens; PBMC stimulated with IFN-γ plus LPS, 10% FBS, 48 hours; read-out: IL-6 supernatant level IC50 (estimated)
Experimental: as §2

IL-8 = experiment: Supernatant IL-8 level of activated PBMC (flow cytometry-based); assay type: cell-based; settings: Homo sapiens; PBMC stimulated with IFN-γ plus LPS, 10% FBS, 48 hours; read-out: IL-8 supernatant level IC50 (estimated)
Experimental: as §2

[3] = oral, moderate to severe acne patients, at 12 weeks; cited from earlier work

IC50 (SZ95 sebocytes [1]; SZ95 cells, short term cultures, read-out: IC50 against lipid synthesis): ~40 µM
Structure (SMILES): CC1=C(/C=C/C(C)=C/C=C/C(C)=C\C(=O)O)C(C)(C)CCC1 [13-cis retinoic acid, 13-cis-retinoic acid, reference compound]

IC50 (IL-1β): > 90 µM
IC50 (TNF-α): > 90 µM
IC50 (IL-6): > 90 µM
IC50 (IL-8): > 90 µM
IC50 (SZ95 sebocytes [1]; Homo sapiens, AA-stimulated SZ95 cells, FIG. 2A, read-out: estimated IC50 upon lipid synthesis (nile red fluorescence intensity)): ~3 µM
Structure (SMILES): CCCCCCCCCCCCCCOc1ccc(C(=O)O)o1 [TOFA, 5-(tetradecyloxy)-2-furancarboxylic acid]
effect on cellular differentiation and lipid accumulation (3T3-L1 cells): dose-dependent effects on cellular differentiation and lipid accumulation
TOFA concentration with viability loss (SZ95 sebocytes [2]): greater than 50 μM
lipid levels by Oil Red O staining and fluorescence microscopy (LNCaP cells; FIG. 11): dose dependent reduction in lipid levels
reduction of lipid levels (flow cytometry/fluorescence) (LNCaP cells; TOFA at 25 μM, FIG. 12): > 50%
IC50 (PBMC; Homo sapiens, PBMC stimulated with PHA (2 μg/mL), 10% FBS, 48 hours, one row per experiment (donor)): > 90 µM
effect on the viability of PBMC (PBMC; PBMC stimulated with PHA or IFN-γ plus LPS): no effect on the viability
inhibition of lipid synthesis observed by fluorescence microscopy (SZ95 sebocytes [1]; AA-stimulated SZ95 cells, FIG. 1): dose-dependent inhibition of lipid synthesis

Structure (SMILES): CC(c1cc2ccccc2s1)N(O)C(N)=O (stereo not shown) [Zileuton]
reduction in inflammatory lesions [3]: 71%
reduction of sebum lipids [3]: 65%

Structure (SMILES): CCCCC/C=C\C/C=C\C/C=C\C/C=C\CCCC(=O)O [arachidonic acid (AA), arachidonic acid, reference compound]
increase of SZ95 sebocyte lipid levels (SZ95 sebocytes [1]; 96-well microtiter plate format): approximately 5 fold
